{"source": "patent US6160166A", "about": "“Phosphonated agents and their antiangiogenic and antitumorigenic use” (priority 1999, dated 2000)", "key": {"[1]": {"test_system": "human microvascular endothelial cells (HMEC-1, HMVEC-d)", "assay": "3H-Leucine incorporation, inhibition of protein synthesis", "assay_type": "cell-based", "details": "time course", "experimental": "For each time period, six replicate flasks are set up. The volume of the medium MCDB-131 is 10 ml per flask. After incubation, the medium was replaced with fresh MCDB-131 containing […] of ^3 H-leucine and incubated for a further 90 min. TritonX-100 (240 μl, 10%) were then added to the contents of each flask and agitated. Trichloroacetic acid (TCA) (4 ml, 20%) is added, the contents mixed and the flasks left overnight at room temperature. After 24 hr, the flask contents was suspended by shaking, transferred to tubes and centrifuged at 4300 g. The pellets were resuspended in 10% TCA and recentrifuged and then resuspended in 3.0 ml of 0.1 M NaOH. Half of this volume was transferred to scintillation vials in 10 ml of Emulsifier Safe scintillation fluid (Packard) while the remaining 1.5 ml was used to assay DNA content (LaBarca and Paigen, 1980). The radioactive counts due to protein synthesized in the presence of ^3 H-leucine was normalized to counts/μg DNA. Protein synthesis by cells treated with the phosphonic acid agents are expressed relative to that of control cells as the percent of inhibition for each time of incubation.\nAfter this period of time, the rate steadily declines."}, "[2]": {"molecular_target": "cyclic AMP-dependent protein kinase", "details": "Mahoney et al., 1990; cited from earlier work"}, "[3]": {"test_system": "fetal bovine aortic endothelial cells", "details": "Takano et al., 1994; cited from earlier work"}, "Toxicity in vivo in mice": {"assay": "Toxicity in vivo in mice", "parameters": "species or system mouse", "experimental": "Mice were injected intraperitoneally with 0-150 μM/kg body weight of the compounds to be tested, every other day for a total of five injections. The animals were carefully observed daily and weighed every third day for 28 days after the last injection. After the 28-day observation period, the animals were euthanized, blood was collected through cardiac puncture and the following tissues were subjected to histological investigation: heart, lungs, liver, spleen, adrenal gland, kidney, sciatic nerve, soleus muscle and brain.\nIt is clear from studies so far that compounds with equipotent or greater antitumor activity but with substantially lower toxicity are of considerable potential therapeutic value as an antitumorigenic or antiangiogenic agent. […] The animals were carefully observed daily and weighed every third day for 28 days after the last injection. After the 28-day observation period, the animals were euthanized, blood was collected through cardiac puncture and the following tissues were kept for histological investigation: heart, lungs, liver, spleen, adrenal gland, kidney, sciatic nerve, soleus muscle and brain."}, "DNA synthesis": {"test_system": "DNA synthesis", "details": "Jindal et al. (1990); cited from earlier work"}, "p34cdc2 kinase": {"test_system": "p34cdc2 kinase", "details": "literature; extracts from human small cell lung cancer cells; cited from earlier work"}, "[4]": {"test_system": "chick chorioallantoic membrane (CAM)", "assay": "Chick egg chorioallantoic membrane (CAM) assay, 11-day, established vessels", "assay_type": "in vivo", "experimental": "According to Ausprunk et al. (1974), capillary angiogenesis in the CAM is completed by day 11. Measurements of intercapillary distances are also consistent with the cessation of capillary growth after day 10. […] The implants were prepared as previously described by Gagliardi et al. (1992), implanted on day 11 and read on day 13.\nComparison of the inhibition of angiogenesis by 70 nmol of\nsuramin or a equimolar amount of a phosphonic acid agents in the\n6-day and 11-day chick egg chorioallantoic (CAM) assay."}}, "note": "“Also recorded” adds a separate entry of the source."}
{"smiles": "Cc1ccc(C(=O)Nc2ccc(S(=O)(=O)O)c3cc(S(=O)(=O)O)cc(S(=O)(=O)O)c23)cc1NC(=O)c1cccc(NC(=O)Nc2cccc(C(=O)Nc3cc(C(=O)Nc4ccc(S(=O)(=O)O)c5cc(S(=O)(=O)O)cc(S(=O)(=O)O)c45)ccc3C)c2)c1", "note": "[suramin]", "values": [{"measurement": "effect on protein synthesis", "setting": "[1]", "value": "no change in the rate of protein synthesis until suramin and the cells have been incubated together for at least 24 hr"}, {"measurement": "IC50", "setting": "[2]", "value": 656, "unit": "µM"}, {"measurement": "concentration inhibiting plasminogen activator activity induced by bFGF", "setting": "[3]", "value": "higher than 250 μg/ml"}, {"measurement": "reduction in body weight", "setting": "Toxicity in vivo in mice; 150, 75 and 35 μM/kg body weight, injection period", "value": "10-15%"}, {"measurement": "histological findings", "setting": "Toxicity in vivo in mice; after 28-day observation, suramin or equimolar doses", "value": "dose-related frequency of lipoid degeneration of the zona reticularis of the adrenal gland and vacuolar changes in the proximal convoluted tubules of the renal tubular epithelium"}, {"measurement": "mortality", "setting": "Toxicity in vivo in mice; i.p., every other day, five injections, suramin 150 μM/kg, agents up to 150 μM/kg", "value": "died before completion of the five injections"}, {"measurement": "body weight, in words", "setting": "Toxicity in vivo in mice; i.p., five injections, 28 days observation", "value": "body weight stabilized but did not return to normal"}, {"measurement": "effect on DNA synthesis", "setting": "DNA synthesis", "value": "inhibitory action of suramin on DNA synthesis"}, {"measurement": "effect on purified cdc2 kinase / tyrosine phosphorylation", "setting": "p34cdc2 kinase", "value": "direct inhibitory effect on purified cdc2 kinase and also modulates the tyrosine phosphorylation of cdc2 kinase"}, {"measurement": "11-day CAM % Inhibition", "setting": "[4]; 70 nmol or equimolar amount", "value": 50, "unit": "%"}, {"measurement": "inhibitory activity in the 11-day CAM, in words", "setting": "[4]; established vessels", "value": "showed antiangiogenic activity; also recorded: clearly affected both the growing and established vascular cells"}]}
